Read-outs that look alike come from different tables or passages of the source. Values belong to the compound of their own block, whether it stands above or below them.
Legend:
[1] = tested on: MOLM-13 cells; experiment: CD11b and CD14 differentiation marker expression by flow cytometry; format: cell-based, human; conditions: single agents
Method: A Guava EasyCyte HT™ flow cytometer was used to measure DNA content, Annexin V staining and cell surface expression of CD14 and CD11b markers on Days 10 and 14.
On Day 0 MOLM-13 cells are seeded at 3,000 cells/mL. On Day 7 and Day 10 MOLM-13 cells are counted and reseeded at 50,000 cells/mL. […] On Day 10 They were redosed again. On Day 14 the experiment was terminated. Cells were sampled for CD14 and CD11b analysis on Days 7, 10 and 14.
On day 7, 10, and 14, cells were collected for analysis. The cells were prepared by washing twice in PBS, followed by fixation in 4% formaldehyde for ten minutes at 37° C. After fixation cells were washed and blocked with blocking buffer for 10 minutes at room temperature. Cells were then incubated in presence of anti-CD14, anti-CD11b or anti-IgG antibody for 1 hour at room temperature while rotating. Cells were washed, re-suspended in PBS and 5,000 events were analyzed using ExpressPro software on the GuavaCyte Plus System.

[2] = tested on: MOLM-13 (MLL-AF9); experiment: Combination proliferation study with Compound A2 (ATP/CellTiter-Glo, Chou-Talalay combination index); format: cell-based, human
Summary of the method: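 Viability by CellTiter-Glo ATP luminescence; Fa relative to DMSO controls. Combination index by Chou-Talalay (CI<1 synergy, =1 additive, >1 antagonism).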

[3] = tested on: SKM-1 (non-MLL-rearranged AML); experiment: as above; format: cell-based, human
Method: (§1) Graphs representing values of combination index (CI) versus Fractional effect (Fa) known as Fa-CI plots were generated and synergy was evaluated.
as §1
(§2) The HP-D300 digital dispenser (Tecan) was used to dispense compounds in a combinatorial matrix. […] Cell viability was measured via ATP content using CellTiter-Glo® (Promega).
(§3) Viability was determined using CellTiter-Glo® (Promega).
MV4-11 cells were maintained in IMDM supplemented with 10% fetal bovine serum. MOLM-13 and SKM-1 cells were maintained in Roswell Park Memorial Institute medium (RPMI) supplemented with 10% fetal bovine serum. They were cultured in flasks or plates in a humidified 5% CO2 atmosphere.
Proliferation studies were performed using MOLM-13, MV4-11 and SKM-1 cell lines in vitro to evaluate the cancer cell killing effect of a combination of two agents together on cell growth. Initial proliferation studies were performed to determine the IC50 values of a given compound in each cell line. The cell counts were measured by ATP quantitation using the Promega Cell Titer Glo kit and luminescence values correspond to the amount of ATP in a given well.
Compounds evaluated for synergy in the co-treatment phase were tested in a range which was bracketed around the IC50's. The compounds were plated to a 96 well plate in a matrix format which includes increasing concentrations of each drug in the combination in a constant ratio, in addition to the effect of each compound alone in the study. Cells were seeded and grown in the log-linear phase for 3 or 7 days in the cotreatment phase. Maximum and minimum inhibition (DMSO alone) controls were used in each plate to calculate fraction affected (Fa) of a test well. DMSO concentration was kept at 0.1% v/v. The drug combination analysis was performed utilizing the Chou-Talalay method. Synergy was determined using the software package Calcusyn by Biosoft. The combination index (CI) is the term used to describe the level of synergy or antagonism in a given test system. A combination index less than one indicates synergy, and a CI greater than one indicates antagonism.
The drug combination analysis was performed using the Chou-Talalay method. Graphs representing values of combination index (CI) versus Fractional effect (Fa) known as Fa-CI plots were generated and synergy was evaluated.

[4] = tested on: EOL-1 (MLL-PTD); experiment: Combination proliferation study with Compound A2; format: cell-based, human
Method: as §2, §3

[5] = tested on: KOPM-88 (MLL-PTD); experiment: Combination proliferation study with Compound A2; format: cell-based, human
Method: as §2, §3

[6] = tested on: MV4-11 (MLL-AF4); experiment: Combination proliferation study with Compound A2 (ATP/CellTiter-Glo, Chou-Talalay combination index); format: cell-based, human
[7] = tested on: ML-2 (MLL-AF6); experiment: EPZ-5676 7-day pre-treatment, then second compound 72 hours, growth inhibition GI100 shift (Example 7); format: cell-based
Method: (§4) Cells were then equilibrated in incubators for 24 hours before treatment with a second compound. Treated assay plates were incubated with a second compound for 72 hours. After this time, plates were developed for endpoint analysis using ATPLite to measure ATP content, which is used as an indicator of cell viability.
(§5) Cells were then treated with a second compound for 72 hours. After this time, plates were developed for endpoint analysis using Cell Titer Glo to measure ATP content, which is used as an indicator of cell viability.
(§6) “N/D” means the GI100 of the second compound could not be determined for both conditions and “-” means not tested.
(§7) Growth Inhibition (GI) as a measure of cell viability: The cell viability of vehicle was measured at the time of dosing the second agent (T0) and after seventy-two hours (T72). […] A GI 200% represents complete death of all cells in the culture well. Compounds reaching an activity plateau of GI 200% are considered cytotoxic. GI is calculated by applying the following test and equation: […]
(§8) where T is the signal measure for a test article, V is the vehicle-treated control measure, and V0 is the vehicle control measure at time zero.

[8] = tested on: MOLM-13 (MLL-AF9); experiment: EPZ-5676 7-day pre-treatment, then second compound 72 hours, growth inhibition GI100 shift; primary screen and retest (Example 7); format: cell-based, human
Method: as §4, §5, §6, §7, §8

[9] = tested on: SKM-1 (non-MLLr); experiment: as above; format: cell-based, human; conditions: 300 nM EPZ-5676 7-day pre-treatment
Method: as §4, §5, §6, §7, §8

[10] = tested on: OCI-AML-4 (MLL-ENL); experiment: as above; format: cell-based
Method: as §4, §5, §6, §7, §8

[11] = target: ERK1 (Homo sapiens, UniProt P27361); experiment: ERK kinase activity inhibition; format: biochemical
ERK1, sequence (P27361 whole entry): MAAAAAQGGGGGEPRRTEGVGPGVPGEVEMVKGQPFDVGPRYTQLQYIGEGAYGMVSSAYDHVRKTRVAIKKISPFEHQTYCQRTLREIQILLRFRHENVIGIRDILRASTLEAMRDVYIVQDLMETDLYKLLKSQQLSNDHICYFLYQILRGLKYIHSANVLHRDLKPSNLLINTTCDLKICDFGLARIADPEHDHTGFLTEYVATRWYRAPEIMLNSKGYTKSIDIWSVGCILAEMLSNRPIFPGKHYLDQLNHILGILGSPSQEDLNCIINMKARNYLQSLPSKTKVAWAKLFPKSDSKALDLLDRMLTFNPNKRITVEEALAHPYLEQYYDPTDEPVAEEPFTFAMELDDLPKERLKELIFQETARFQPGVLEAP
Method: (§9) Compound 1 is a potent inhibitor of the kinase activities of ERK1 and ERK2. In some embodiments, Compound 1 inhibits one or both of ERK1 and ERK2 with an IC50 of about 10 to about 20 nM.
(§10) The activity of Compound 1, and pharmaceutically acceptable salts thereof, as an inhibitor of one or both of an ERK1 and ERK2 kinase, or a mutant thereof, may be assayed in vitro, in vivo or in a cell line. In vitro assays include assays that determine inhibition of downstream phosphorylation, changes in gene expression, subsequent functional markers and consequences, and/or kinase activity of one or both of activated ERK1 and ERK2 kinase, or a mutant thereof. Alternate in vitro assays quantitate the ability of the test compound to bind to one or both of ERK1 and ERK2. Test compound binding may be measured by radiolabeling the test compound prior to binding, isolating one or both of the compound/ERK1 complex and the compound/ERK2 complex, and determining the amount of radiolabel bound. Alternatively, test compound binding may be determined by running a competition experiment where test compounds are incubated with one or both of ERK1 and ERK2 kinase bound to known radioligands. […]

[12] = target: ERK2 (Homo sapiens, UniProt P28482); experiment: ERK kinase activity inhibition; format: biochemical
ERK2, sequence (P28482 whole entry): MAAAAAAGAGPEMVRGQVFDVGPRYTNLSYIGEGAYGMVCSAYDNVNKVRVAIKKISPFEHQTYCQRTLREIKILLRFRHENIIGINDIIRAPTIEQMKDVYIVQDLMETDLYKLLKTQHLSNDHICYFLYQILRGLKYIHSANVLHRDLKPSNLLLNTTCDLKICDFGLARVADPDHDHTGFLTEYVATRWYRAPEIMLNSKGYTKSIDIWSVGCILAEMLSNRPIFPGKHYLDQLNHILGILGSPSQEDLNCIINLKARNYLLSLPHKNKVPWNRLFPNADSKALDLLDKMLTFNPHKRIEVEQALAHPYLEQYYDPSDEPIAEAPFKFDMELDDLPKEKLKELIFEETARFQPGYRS
Method: as §9, §10

[13] = tested on: BRAF-mutant cancer cell lines; experiment: Cancer cell panel screening, anti-proliferative activity; format: cell-based; conditions: 25 of 27 BRAF-mutant cancer cell lines tested
Text: (§11) Bioinformatic analyses indicate that tumors with activating mutations of BRAF are particularly sensitive to Compound 1. […] In the same cancer cell panel screening, 28 of 37 (76%) KRAS-mutant cancer cell lines were sensitive to Compound 1. […] This is of particular importance as resistance to BRAF inhibition has been commonly observed in human patients. […] Without wishing to being bound by any particular theory, it is believed that inhibitors of one or both of ERK1 and ERK2, or a mutant thereof, such as Compound 1, or pharmaceutically acceptable salts thereof, provide effective salvage therapy.

[14] = tested on: KRAS-mutant cancer cell lines; experiment: as above; format: cell-based; conditions: 28 of 37 KRAS-mutant cancer cell lines
Text: as §11

[15] = tested on: A375 melanoma cells that have acquired in vitro resistance to BRAF and MEK inhibition; experiment: Inhibitory activity against resistant melanoma cells; format: cell-based
Text: as §11

[16] = tested on: SKM-1 (non-MLL-r); experiment: Compound A2 7-day pre-treatment, then Compound A2 and Compound 1 for 3 days, CellTiter-Glo (Example 9); format: cell-based, human; conditions: Compound A2 7 days, then both for 3 days, n=2
Method: (§12) At the endpoint, cell viability was measured via ATP content using CellTiter-Glo®.

[17] = tested on: MOLM-13 (MLL-AF9); experiment: as above; format: cell-based, human; conditions: Compound A2 7 days, then both for 3 days, n=2
Method: as §12

[18] = tested on: 258 kinases; experiment: Kinase selectivity analysis; format: biochemical; conditions: analysis of 258 kinases
Method: as §9

[19] = 300 nM EPZ-5676 7-day pre-treatment, second compound 72 hours, ATPLite

Compound: COc1cccc2c1C(=O)c1c(O)c3c(c(O)c1C2=O)C[C@@](O)(C(C)=O)C[C@@H]3O[C@H]1C[C@H](N)[C@H](O)[C@H](C)O1 [Daunorubicin]
Differentiation markers CD11b and CD14 [1]: The same effect was observed
Combination with Compound A2, MOLM-13 (MLL-AF9) [2]: Synergy (key: Synergy: Drug synergy was statistically defined by CI values less than 1; Antagonistic: antagonism by CI>1; Additive: additive effect by CI equal to 1)
Combination with Compound A2 when Compound A2 is washed out prior to the addition of the second agent [2]: synergistic anti-proliferative activity was maintained
Combination with Compound A2, SKM-1 AML: Non-rearranged [3]: did not act synergistically
Effect of Compound A2 on the antiproliferative activity of the second agent [3]: did not affect
Combination with Compound A2, EOL-1 (MLL-PTD) [4]: Synergy (key: Synergy: Drug synergy was statistically defined by CI values less than 1; Antagonistic: antagonism by CI>1; Additive: additive effect by CI equal to 1)
Combination with Compound A2, KOPM-88 (MLL-PTD) [5]: Synergy (key: Synergy: Drug synergy was statistically defined by CI values less than 1; Antagonistic: antagonism by CI>1; Additive: additive effect by CI equal to 1)
Combination with Compound A2 when Compound A2 is washed out prior to the addition of the second agent [6]: synergistic anti-proliferative activity was maintained

Compound: CC(=O)Nc1cccc(-n2c(=O)n(C3CC3)c(=O)c3c(Nc4ccc(I)cc4F)n(C)c(=O)c(C)c32)c1 [Trametinib]
GI100 [7]: 0.001
Combination with Compound A2, MOLM-13 (MLL-AF9) ([2]; 7 Day Cotreatment Model, Table 4): Synergy (Drug synergy was statistically defined by CI values less than 1)
GI100 [8]: 0.03
Combination with EPZ-5676, MOLM-13 (MLL-AF9) Retest ([8]; 150 nM EPZ-5676 7-day pre-treatment, second compound 72 hours, Cell Titer Glo): Synergy (considered synergistic if the GI100 (Growth inhibition 100) value of the second compound decreased by 2-fold or more when EPZ-5676 was added as compared to the DMSO control)
Combination with EPZ-5676, MOLM-13 (MLL-AF9) Primary screen [8, 19]: Synergy (considered synergistic if the GI100 (Growth inhibition 100) value of the second compound decreased by 2-fold or more when EPZ-5676 was added as compared to the DMSO control)
Combination with EPZ-5676, SKM-1 (non-MLLr) Primary screen ([9]; ATPLite): Synergy (considered synergistic if the GI100 (Growth inhibition 100) value of the second compound decreased by 2-fold or more when EPZ-5676 was added as compared to the DMSO control)
Combination with EPZ-5676, SKM-1 (non-MLLr) Retest ([9]; Cell Titer Glo): Synergy (considered synergistic if the GI100 (Growth inhibition 100) value of the second compound decreased by 2-fold or more when EPZ-5676 was added as compared to the DMSO control)
GI100 [10]: 0.009
Combination with EPZ-5676, OCI-AML-4 (MLL-ENL) Primary screen [10, 19]: Synergy (considered synergistic if the GI100 (Growth inhibition 100) value of the second compound decreased by 2-fold or more when EPZ-5676 was added as compared to the DMSO control)
Combination with EPZ-5676, OCI-AML-4 (MLL-ENL) Retest ([10]; 300 nM EPZ-5676 7-day pre-treatment, second compound 72 hours, Cell Titer Glo): Synergy (considered synergistic if the GI100 (Growth inhibition 100) value of the second compound decreased by 2-fold or more when EPZ-5676 was added as compared to the DMSO control)

IC50 [11]: 10 to 20 nM
IC50 [12]: 10 to 20 nM
Cell lines sensitive to Compound 1 inhibition (GI50 <1 μM) [13]: 93%
Kinase selectivity profile [18]: good overall kinase selectivity profile
Compound: C=CC(=O)Nc1cc(C)ccc1Nc1nc(Nc2cc(OC)ncc2C)ncc1C(F)(F)F [Compound 1, N-(2-((2-((2-methoxy-5-methylpyridin-4-yl)amino)-5-(trifluoromethyl)pyrimidin-4-yl)amino)-5-methylphenyl)acrylamide]
Cell lines sensitive to Compound 1 [14]: 76%
Activity against resistant A375 melanoma cells [15]: inhibitory activity
Combination (Compound A2 and Compound 1) [16]: No benefit
Combination (Compound A2 and Compound 1) [17]: Synergy

— patent US20200030355A1, “COMBINATION THERAPY FOR TREATING CANCER” (Epizyme, Inc., priority 2014, published 2020)
